One test has as its system SK-BR-3 cancer cells. Description: Inhibitory activity against proliferation of SK-BR-3 cancer cells (CellTiter-Glo). Type of test: cell-based. The conditions noted are these: ErbB2-overexpressing SK-BR-3 cells, 120 hours after treatment. On the procedure:
To evaluate the inhibitory activity of a compound according to the present invention against the proliferation of ErbB2-overexpressing cancer cells, the following experiment were performed.
10% FBS-added McCOY'S 5A was used for SK-BR-3 cancer cells. 20% FBS-added RPMI-1640 was used for BT-474 cancer cells. Transduced Ba/F3 cells were cultured in a RPMI-1640 medium to which 1 μg/ml puromycin (Invitrogen) was added.
48 hours before compound treatment, each type of the SK-BR-3 and BT-474 cells were seeded at 5,000 cells/well in a white clear bottom 96 well plate (Corning). The compound was diluted in dimethyl sulfoxide (SK-BR-3: 3-fold dilution, a total of 12 concentrations, BT-474: […], a total of 12 concentrations) and injected at 1 μl to have the final concentration of 0.2 nM to 5 μM. As for measurement of live cells, 120 hours after treatment with the compound, a CellTiter-Glo luminescent cell-viability reagent (Promega) was used to store the cells at room temperature for 10 minutes, followed by measurement of luminescence using a reader (SynergyNeo, Biotek). Each test was repeated three times.
The result values were calculated as a cell growth rate (%) compared to the control group. A graph was plotted using the GraphPad Prism version 8.3.0 program, and GI50 values were calculated.
(In general: ATP-based viability assays read luminescence as a measure of living cells.)
The term GI50 denotes the concentration at which growth is held to half of that of the control. Consider `C=CC(=O)Nc1cc(Nc2cc(N3OCCC3c3cccc(-c4cccc(F)c4)c3)ncn2)c(OC)cc1N(C)CCN(C)C` (centres unmarked) [Example 212, N-(2-((2-(dimeth-yl-amino)ethyl)-(methyl)amino)-5-((6-(3-(3′-fluoro-[1,1′-biphenyl]-3-yl)isoxazolidin-2-yl)pyrimidin-4-yl)amino)-4-meth-oxyphenyl)acryl-amide], for which the GI50 was 0.05 to 0.5 µM.

The same test, now with this note: Homo sapiens, SK-BR-3, 120 h, ErbB2-overexpressing SK-BR-3 cells, 120 hours after treatment.
Take `C=CC(=O)Nc1cc(Nc2cc(N3OCCC3c3cccc(-c4ccc(C)s4)c3)ncn2)c(OC)cc1N1CCN(C)CC1` (centres unmarked) [Example 214, N-(4-methoxy-2-(4-methylpiper-azin-1-yl)-5-((6-(3-(3-(5-methyl-thiophen-2-yl)-phenyl)isoxazol-idin-2-yl)pyrim-idin-4-yl)amino)-phenyl)acrylamide]: the GI50 lay in the range of 0.05 to 0.5 µM.

With `C=CC(=O)Nc1cc(Nc2cc(N3OCC[C@@H]3c3cccc(-c4ccccc4)c3)ncn2)c(OC)cc1N1CCN(C(C)=O)CC1` [Example 215, (R)-N-(5-((6-(3-([1,1′-biphenyl]-3-yl)isoxazolidin-2-yl)pyrimidin-4-yl)-amino)-2-(4-acetyl-piperazin-1-yl)-4-methoxyphenyl)-acrylamide], the GI50 is below 0.05 µM.

As for `C=CC(=O)Nc1cc(Nc2cc(N3OCC[C@@H]3c3cc(F)cc(Oc4ccn(C)n4)c3)ncn2)c(OC)cc1N1CCN(C)CC1` [Example 217, (R)-N-(5-((6-(3-(3-fluoro-5-((1-methyl-1H-pyr-azol-3-yl)oxy)-phenyl)isoxazol-idin-2-yl)pyrim-idin-4-yl)amino)-4-methoxy-2-(4-methylpiperazin-1-yl)phenyl)-acrylamide], the GI50 is 0.05 to 0.5 µM.

For the compound `C=CC(=O)Nc1cc(Nc2cc(N3OCC[C@@H]3c3cc(F)cc(Oc4ccn(C)n4)c3)ncn2)c(OC)cc1N(C)CCN(C)C` [Example 218, (R)-N-(2-((2-(dimethylamino)-ethyl)(methyl)-amino)-5-((6-(3-(3-fluoro-5-((1-methyl-1H-pyr-azol-3-yl)oxy)-phenyl)isoxazol-idin-2-yl)pyrim-idin-4-yl)amino)-4-methoxyphen-yl)acrylamide], the GI50 was below 0.05 µM.

Take `C=CC(=O)Nc1cc(Nc2cc(N3OCC[C@@H]3c3cc(F)cc(Oc4cccc(F)c4)c3)ncn2)c(OC)cc1N1CCN(CC)CC1` [Example 220, (R)-N-(2-(4-ethyl-piperazin-1-yl)-5-((6-(3-(3-fluoro-5-(3-fluorophenoxy)-phenyl)isoxazol-idin-2-yl)pyrim-idin-4-yl)amino)-4-methoxyphen-yl)acrylamide]: the GI50 was below 0.05 µM.

`C=CC(=O)Nc1cc(Nc2cc(N3OCC[C@@H]3c3cc(F)cc(Oc4cccc(F)c4)c3)ncn2)c(OC)cc1N1CCOCC1` [Example 222, (R)-N-(5-((6-(3-(3-fluoro-5-(3-fluorophenoxy)-phenyl)isoxazol-idin-2-yl)pyrim-idin-4-yl)amino)-4-methoxy-2-morpholinophen-yl)acrylamide]: the GI50 is below 0.05 µM.

Turning to `C=CC(=O)Nc1cc(Nc2cc(N3OCC[C@@H]3c3cccc(Oc4cc(F)cc(F)c4)c3)ncn2)c(OC)cc1N(C)CCN(C)C` [Example 226, (R)-N-(5-((6-(3-(3-(3,5-difluoro-phenoxy)phenyl)-isoxazolidin-2-yl)-pyrimidin-4-yl)-amino)-2-((2-(dimethylamino)-ethyl)(methyl)-amino)-4-methoxy-phenyl)acrylamide], the GI50 is below 0.05 µM.

In the case of `C=CC(=O)Nc1cc(Nc2cc(N3OCC[C@H]3c3cccc(OCc4cccc(F)c4)c3)ncn2)c(OC)cc1N(C)CCN(C)C` [Example 229, (S)-N-(2-((2-(dimethylamino)-ethyl)(methyl)-amino)-5-((6-(3-(3-((3-fluorobenz-yl)oxy)phenyl)-isoxazolidin-2-yl)-pyrimidin-4-yl)-amino)-4-methoxy-phenyl)acrylamide], the GI50 was 0.05 to 0.5 µM.

As for `C=CC(=O)Nc1cc(Nc2cc(N3OCC[C@@H]3c3cccc(-c4ccccc4)c3)ncn2)c(OC)cc1N1CCN(CCC)CC1` [Example 230, (R)-N-(5-((6-(3-([1,1′-biphenyl]-3-yl)isoxazolidin-2-yl)pyrimidin-4-yl)-amino)-4-methoxy-2-(4-propylpiper-azin-1-yl)phenyl)-acrylamide], the 50% growth inhibitory concentration (GI50) was below 0.05 µM.

In the case of `C=CC(=O)Nc1cc(Nc2cc(N3OCCC3c3cccc(-c4cnn(C)c4)c3)ncn2)c(OC)cc1N1CCN(C)CC1` (centres unmarked) [Example 232, N-(4-methoxy-5-((6-(3-(3-(1-meth-yl-1H-pyrazol-4-yl)phenyl)isoxazol-idin-2-yl)pyrim-idin-4-yl)amino)-2-(4-methylpiper-azin-1-yl)phenyl)-acrylamide], the GI50 is below 0.05 µM.

As for `C=CC(=O)Nc1cc(Nc2cc(N3OCCC3c3cccc(-c4cnn(C)c4)c3)ncn2)c(OC)cc1N1CCC(N2CCN(C3CC3)CC2)CC1` (centres unmarked) [Example 234, N-(2-(4-(4-cyclo-propylpiperazin-1-yl)piperidin-1-yl)-4-methoxy-5-((6-(3-(3-(1-methyl-1H-pyrazol-4-yl)-phenyl)isoxazol-idin-2-yl)pyrim-idin-4-yl)amino)-phenyl)acrylamide], the GI50 was below 0.05 µM.

Regarding `C=CC(=O)Nc1cc(Nc2cc(N3OCCC3c3cccc(-c4cnc5cccnn45)c3)ncn2)c(OC)cc1N(C)CCN(C)C` (centres unmarked) [Example 235, N-(2-((2-(dimeth-ylamino)ethyl)-(methyl)amino)-5-((6-(3-(3-(imidazo[1,2-b]-pyridazin-3-yl)-phenyl)isoxazol-idin-2-yl)pyrim-idin-4-yl)amino)-4-methoxyphen-yl)acrylamide], the GI50 is below 0.05 µM.

`C=CC(=O)Nc1cc(Nc2cc(N3OCCC3c3cccc(-c4cccc(C(F)(F)F)c4)c3)ncn2)c(OC)cc1N(C)CCN(C)C` (centres unmarked) [Example 236, N-(2-((2-(dimeth-ylamino)ethyl)-(methyl)amino)-4-methoxy-5-((6-(3-(3′-(trifluorometh-yl)-[1,1′-biphenyl]-3-yl)isoxazolidin-2-yl)pyrimidin-4-yl)amino)phenyl)-acrylamide]: the GI50 was below 0.05 µM.

For the compound `C=CC(=O)Nc1cc(Nc2cc(N3OCCC3c3cccc(-c4cccc(C(F)(F)F)c4)c3)ncn2)c(OC)cc1N1CCN(C)CC1` (centres unmarked) [Example 237], the GI50 fell in the range of 0.05 to 0.5 µM.

In the case of `C=CC(=O)Nc1cc(Nc2cc(N3OCCC3c3cccc(-c4nccs4)c3)ncn2)c(OC)cc1N(C)CCN(C)C` (centres unmarked) [Example 238, N-(2-((2-(dimeth-ylamino)ethyl)-(methyl)amino)-4-methoxy-5-((6-(3-(3-(thiazol-2-yl)-phenyl)isoxazol-idin-2-yl)pyrim-idin-4-yl)amino)-phenyl)acrylamide], the GI50 is below 0.05 µM.

With `C=CC(=O)Nc1cc(Nc2cc(N3OCC[C@@H]3c3cc(F)cc(-c4cccc(N(C)C)c4)c3)ncn2)c(OC)cc1N(C)CCN(C)C` [Example 239], the GI50 is below 0.05 µM.

As for `C=CC(=O)Nc1cc(Nc2cc(N3OCC[C@@H]3c3cc(F)cc(-c4ncnn4C)c3)ncn2)c(OC)cc1N(C)CCN(C)C` [Example 240, (R)-N-(2-((2-(dimethylamino)-ethyl)(methyl)-amino)-5-((6-(3-(3-fluoro-5-(1-methyl-1H-1,2,4-triazol-5-yl)phen-yl)-isoxazolidin-2-yl)pyrimidin-4-yl)-amino)-4-methoxy-phen-yl)acrylamide], the GI50 is below 0.05 µM.

As to `C=CC(=O)Nc1cc(Nc2cc(N3OCC[C@H]3c3cccc(-c4cccc(F)c4)c3)ncn2)c(OC)cc1N1CCN(C)CC1` [Example 241, (S)-N-(5-((6-(3-(3′-fluoro-[1,1′-biphenyl]-3-yl)-isoxazolidin-2-yl)-pyrimidin-4-yl)-amino)-4-methoxy-2-(4-methylpiper-azin-1-yl)phenyl)-acrylamide], the GI50 lay within 0.5 to 5 µM.

On to `C=CC(=O)Nc1cc(Nc2cc(N3OCC[C@@H]3c3cc(F)cc(-c4cccs4)c3)ncn2)c(OC)cc1N(C)CCN(C)C` [Example 243, (R)-N-(2-((2-(dimethylamino)-ethyl)(methyl)-amino)-5-((6-(3-(3-fluoro-5-(thio-phen-2-yl)phenyl)-isoxazolidin-2-yl)-pyrimidin-4-yl)-amino)-4-methoxy-phenyl)acrylamide], for which the GI50 is below 0.05 µM.

With `C=CC(=O)Nc1cc(Nc2cc(N3OCC[C@@H]3c3ccc(F)c(OCc4cccc(F)c4)c3)ncn2)c(OC)cc1N1CCN(C)CC1` [Example 244, (R)-N-(5-((6-(3-(4-fluoro-3-((3-fluorobenzyl)oxy)-phenyl)isoxazol-idin-2-yl)pyrim-idin-4-yl)amino)-4-methoxy-2-(4-methylpiperazin-1-yl)phenyl)-acrylamide], the GI50 is below 0.05 µM.

`C=CC(=O)Nc1cc(Nc2cc(N3OCC[C@@H]3c3cccc(C(=O)NC(C)C)c3)ncn2)c(OC)cc1N1CCN(C)CC1` [Example 246, (R)-3-(2-(6-((5-acrylamido-2-methoxy-4-(4-methylpiperazin-1-yl)phenyl)-amino)pyrimidin-4-yl)isoxazolidin-3-yl)-N-isopropyl-benzamide]: the GI50 was below 0.05 µM.

Turning to `C=CC(=O)Nc1cc(Nc2cc(N3OCC[C@@H]3c3cccc(C(=O)NC(C)C)c3)ncn2)c(OC)cc1N(C)CCN(C)C` [Example 247, (R)-3-(2-(6-((5-acrylamido-4-((2-(dimethylamino)-ethyl)(methyl)-amino)-2-methoxy-phenyl)amino)pyr-imidin-4-yl)isox-azolidin-3-yl)-N-isopropylbenzamide], the GI50 is below 0.05 µM.

(Values after patent US20240262815A1, “HETEROARYL DERIVATIVE, METHOD FOR PREPARING SAME, AND PHARMACEUTICAL COMPOSITION COMPRISING SAME AS ACTIVE INGREDIENT” (VORONOI INC., priority 2021, published 2024).)
